# Data published in patent US20260294863A1, “METHOD OF TREATING FIBROTIC-RELATED CONDITION” (YISSUM RESEARCH DEVELOPMENT COMPANY OF THE HEBREW …, priority 2023, published 2026).
# Tests used:
# [1] = system: BzATP/LPS-activated microglia; test: Gene expression (RNA-seq) in BzATP/LPS-activated microglia; format: cell-based, Balb/C mice; conditions: 1×10^−10 M, 8 hrs after BzATP/LPS
# Procedure: (§1) Experiments were performed on primary microglial cells isolated from brains of neonatal Balb/C mice as previously described (Reichert and Rotshenker, 2003). The brains were stripped of their meninges and enzymatically dissociated. Cells were plated on Poly-L-lysine coated flasks for one week, re-plated for 1- to 2-hr on bacteriological plates and non-adherent cells were washed away. Microglia were propagated by incubation in 20% of medium, conditioned by the L-cell line that produces mouse-CSF. They were identified by morphology and positive immune-reactivity to P2y12, F4/80, complement receptor-3 and Galectin-3/MAC-2 (Reichert and Rotshenker 2003; Gitik et al. 2011).
# Ladostigil (1×10^−10 M) was added to microglia for 2 hrs before BzATP/LPS. Cells were harvested before and 8 hr after addition of BzATP/LPS. Total RNA was extracted using the RNeasy Plus Universal Mini Kit (QIAGEN) according to the manufacturer's protocol. Total RNA samples (1 μg RNA) were enriched for mRNAs by pull-down of poly A. Libraries were prepared using the KAPA Stranded mRNA-Seq Kit according to the manufacturer's protocol and sequenced using Illumina NextSeq 500 to generate 85 bp single-end reads (total 25-30 million reads per sample) as described in Zohar et al. (2021).
# Next-generation sequencing data underwent quality control using FastQC. They were then preprocessed using Trimmomatic (Bolger et al. 2014) and aligned to the reference genome GRCm38 with the STAR aligner (Dobin et al. 2013) using default parameters. Genomic loci were annotated using GENCODE version M25 (Frankish et al. 2019). Genes with low expression were filtered out of the dataset by setting a threshold of a minimum of 2 counts-per-million in three samples.
# Pair-wise differential analyses were performed between all […] BzATP/LPS time points and genes with an FDR <0.01 were considered.
# EGR1 = test: Nuclear levels of EGR1 in microglia activated by BzATP and LPS; format: cell-based, Balb/C mice
# Procedure: as §1
# The addition of BzATP/LPS to microglia increased cytoplasmic levels of TNFαIP3 protein and nuclear ERGR1 protein.
# [2] = system: primary mouse microglial cultures activated by lipopolysaccharide (LPS); conditions: cited from earlier work
# IL1β = test: Secretion of IL1β from BzATP/LPS-activated microglia (ELISA); format: cell-based, Balb/C mice
# Procedure: as §1
# Cytokines were measured as previously described (Shamash et al. 2002) using ELISA Max deluxe set (Biolegend, CA, USA) for secreted TNFα and IL-6 proteins and ELISA DuoSet (R&D systems, UK) for secreted and cell associated IL-1β, according to manufacturer's instructions.
# The effect of ladostigil at concentrations of 1×10^−13 M to 1×10^−9 M on the secretion of cytokine proteins was assessed by adding it to microglia for 2 hr before LPS (0.75 μg/ml) and BzATP (400 μM). Other microglia were treated similarly with the steroid, budesonide as a reference standard at concentrations of 1× 10^−13 to 1× 10^−11 M. Measurements of cytokine secretion were performed 8 hrs after addition of LPS and BzATP. Since the levels of secreted IL-1β were still low, samples were concentrated 2- to 4-fold by an Amicon ultra-centrifugal filter device (Merck-Millipore, Ireland). ELISA was used to quantify the levels of cytokine proteins. Protein content in the microglia lysate was measured by Bradford and levels of cytokines were calculated and presented as pg/μg of microglial protein.
smiles,measurement,setting,value
"C#CCN[C@@H]1CCc2ccc(OC(=O)N(C)CC)cc21 [Ladostigil, 6-(N-ethyl, N-methylcarbamyloxy)-N propargyl-1 (R)-aminoindan hemitartrate]",Egr1 gene expression,[1],downregulated
same,Egr2 gene expression,[1],downregulated
same,Mmp12 gene expression,[1],downregulated
same,TNFαIP3 (A20) gene expression,[1],up-regulated
same,Timp1 gene expression,[1],downregulated
same,number of genes significantly altered in expression,[1],25 genes
same,Mean percent of nuclei with positive EGR1 protein immunoreactivity ± SEM,"EGR1; BzATP/LPS, ladostigil 1×10^−10 M, Medium 19.0 ± 4.2",56.0 ± 3.9%
same,change in nuclear EGR1 protein,"EGR1; microglia, ladostigil 1×10^−10 M on top of BzATP/LPS",decreased
same,IL1β gene expression,[2],decreased gene expression
same,IL-6 gene expression,[2],decreased gene expression
same,TNFα gene expression,[2],decreased gene expression
same,Emax,"IL1β; Mus musculus, Microglia, 8 h, 1×10^−11-1×10^−9 M, read-out: maximal reduction of IL1β",~50%
same,minimal effective concentration,"IL1β; Mus musculus, microglia, BzATP/LPS, medium containing BSA, 8 hrs, read-out: lowest concentration that significantly decreased IL1β secretion",1e-06 µM
same,reduction of IL1β release,"IL1β; all concentrations tested, added 2 hrs before BzATP and LPS, 0.1% BSA, p<0.01",reduced the 3 cytokines significantly
same,reduction of IL1β compared with reduction of TNFα,"IL1β; ladostigil 1×10^−9 M, budesonide 1×10^−11 M",greater than that of TNFα
